# Experimental data from patent US8846951B2 (AbbVie Inc., priority 2009, dated 2014).
# Read-outs that look alike come from different tables or passages of the source.
# Tests used:
# 5HT2C receptors = molecular target: T1, 5HT2C receptors (Homo sapiens, UniProt P28335); experiment: Human 5-HT2C functional high throughput screening assay in CHO-K1 cells (calcium flux); assay type: cell-based; parameters: expressed in transfected cells; host or cells: CHO-K1 cells; conditions: for Emax: CHO-K1, 5-HT2C, maximum functional response as percentage relative to the effect of serotonin; for EC50: CHO-K1 cells, calcium flux
# T1 sequence (P28335 33-458): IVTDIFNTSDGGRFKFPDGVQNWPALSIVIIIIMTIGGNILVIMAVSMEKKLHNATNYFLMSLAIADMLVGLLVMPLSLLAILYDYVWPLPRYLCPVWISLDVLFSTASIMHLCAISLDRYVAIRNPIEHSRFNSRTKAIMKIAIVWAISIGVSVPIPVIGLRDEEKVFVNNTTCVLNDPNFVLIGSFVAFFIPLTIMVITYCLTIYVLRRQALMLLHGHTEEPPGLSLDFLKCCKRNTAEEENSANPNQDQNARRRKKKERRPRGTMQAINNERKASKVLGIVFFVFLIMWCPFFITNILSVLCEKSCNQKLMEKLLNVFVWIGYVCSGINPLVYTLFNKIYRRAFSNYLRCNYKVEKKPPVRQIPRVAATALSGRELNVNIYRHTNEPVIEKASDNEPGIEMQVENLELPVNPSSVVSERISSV
# How it was run: (§1)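 FLIPR calcium readout, ex 480/em 530 nm, 25 °C, 3 min post-addition; agonist response normalized to serotonin, 4-parameter fit → EC50, Emax (% serotonin). Cells: frozen CHO-K1 stable lines, serum-free overnight, Ca4 dye + 2.5 mM probenecid, 60 min RT dark.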
# 5HT2B receptors = molecular target: T2, 5HT2B receptors (Homo sapiens, UniProt P41595); experiment: Human 5-HT2B functional high throughput screening assay in CHO-K1 cells (calcium flux); assay type: cell-based; conditions: for EC50: CHO-K1 cells, calcium flux
# T2 construct: expressed in transfected cells; host or cells: CHO-K1 cells
# T2 sequence (P41595 whole entry): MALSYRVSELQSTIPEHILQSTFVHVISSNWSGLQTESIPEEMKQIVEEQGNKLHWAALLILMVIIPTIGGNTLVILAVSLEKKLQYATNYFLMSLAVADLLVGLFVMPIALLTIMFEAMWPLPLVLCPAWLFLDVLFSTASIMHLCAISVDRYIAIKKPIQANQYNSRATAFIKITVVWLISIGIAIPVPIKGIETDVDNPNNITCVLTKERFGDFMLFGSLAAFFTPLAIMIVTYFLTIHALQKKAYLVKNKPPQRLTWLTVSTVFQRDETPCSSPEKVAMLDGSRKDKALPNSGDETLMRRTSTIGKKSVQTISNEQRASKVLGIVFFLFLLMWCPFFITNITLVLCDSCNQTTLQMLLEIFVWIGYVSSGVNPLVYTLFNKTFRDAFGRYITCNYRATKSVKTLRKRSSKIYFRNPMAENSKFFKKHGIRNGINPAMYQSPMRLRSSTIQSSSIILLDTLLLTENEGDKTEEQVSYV
# How it was run: as §1
# [1] = 5-HT2B, maximum functional response as percentage relative to the effect of serotonin
# [2] = 5-HT2C agonist activity, read-out: EC50
# [3] = 5-HT2B agonist activity, read-out: EC50
SMILES,Emax (5HT2C receptors) [%],"EC50 (5HT2C receptors; EC50, 5-HT2C agonist activity) [nM]",Emax (5HT2B receptors; [1]),"EC50 (5HT2B receptors; EC50, 5-HT2B agonist activity) [µM]",EC50 (5HT2C receptors; [2]) [nM],Emax (5HT2C receptors; read-out: Emax) [%],EC50 (5HT2B receptors; [3]) [µM],Emax (5HT2B receptors; CHO-K1) [%]
"O=C1NC[C@@H]2CNC[C@H]2c2ccc(OCC3CCCCC3)cc21 (relative stereo) [Example 167, Trans-8-(cyclohexylmethoxy)-1,2,3,3a,4,5-hexahydrobenzo[e]pyrrolo[3,4-c]azepin-6(10bH)-one]",> 120,5,inactive,> 10,–,–,–,–
"O=C1NC[C@@H]2CNC[C@H]2c2ccc(OCc3c(F)cccc3F)cc21 (relative stereo) [Example 168, Trans-8-(2,6-difluorobenzyloxy)-1,2,3,3a,4,5-hexahydrobenzo[e]pyrrolo[3,4-c]azepin-6(10bH)-one]",–,–,inactive,–,1,> 120,> 10,–
"CC(C)CCOc1ccc2c(c1)C(=O)NC[C@@H]1CNC[C@@H]21 (relative stereo) [Example 169, Trans-8-(isopentyloxy)-1,2,3,3a,4,5-hexahydrobenzo[e]pyrrolo[3,4-c]azepin-6(10bH)-one]",> 120,1,inactive,> 10,–,–,–,–
"CCC(C)Oc1ccc2c(c1)C(=O)NC[C@@H]1CN(C)C[C@@H]21 (relative stereo) [Example 170, Trans-8-sec-butoxy-2-methyl-1,2,3,3a,4,5-hexahydrobenzo[e]pyrrolo[3,4-c]azepin-6(10bH)-one]",120,70,inactive,> 10,–,–,–,–
"CC(C)CCOc1ccc2c(c1)C(=O)NC[C@@H]1CN(C)C[C@@H]21 (relative stereo) [Example 171, Trans-8-(isopentyloxy)-2-methyl-1,2,3,3a,4,5-hexahydrobenzo[e]pyrrolo[3,4-c]azepin-6(10bH)-one]",> 120,30,inactive,> 10,–,–,–,–
"CC(C)COc1ccc2c(c1)C(=O)NC[C@@H]1CN(C)C[C@@H]21 (relative stereo) [Example 172, Trans-8-isobutoxy-2-methyl-1,2,3,3a,4,5-hexahydrobenzo[e]pyrrolo[3,4-c]azepin-6(10bH)-one]",> 120,60,inactive,> 10,–,–,–,–
"COc1ccccc1CCOc1ccc2c(c1)C(=O)NC[C@@H]1CNC[C@@H]21 (relative stereo) [Example 173, Trans-8-(2-methoxyphenethoxy)-1,2,3,3a,4,5-hexahydrobenzo[e]pyrrolo[3,4-c]azepin-6(10bH)-one]",–,–,inactive,–,20,> 120,> 10,–
"COc1cccc(CCOc2ccc3c(c2)C(=O)NC[C@@H]2CNC[C@@H]32)c1 (relative stereo) [Example 174, Trans-8-(3-methoxyphenethoxy)-1,2,3,3a,4,5-hexahydrobenzo[e]pyrrolo[3,4-c]azepin-6(10bH)-one]",–,–,inactive,–,30,110,> 10,–
"COc1ccc(CCOc2ccc3c(c2)C(=O)NC[C@@H]2CNC[C@@H]32)cc1 (relative stereo) [Example 175, Trans-8-(4-methoxyphenethoxy)-1,2,3,3a,4,5-hexahydrobenzo[e]pyrrolo[3,4-c]azepin-6(10bH)-one]",–,–,inactive,–,6,> 120,> 10,–
"CN1C[C@H]2CNC(=O)c3cc(OCC4CCCCC4)ccc3[C@@H]2C1 (relative stereo) [Example 176, Trans-8-(cyclohexylmethoxy)-2-methyl-1,2,3,3a,4,5-hexahydrobenzo[e]pyrrolo[3,4-c]azepin-6(10bH)-one]",> 120,–,inactive,–,200,–,> 10,–
"O=C1NC[C@@H]2CNC[C@H]2c2ccc(-c3ccncc3)cc21 (relative stereo) [Example 177, Trans-8-(pyridin-4-yl)-1,2,3,3a,4,5-hexahydrobenzo[e]pyrrolo[3,4-c]azepin-6(10bH)-one]",> 120,100,inactive,> 10,–,–,–,–
"COc1ncc(-c2ccc3c(c2)C(=O)NC[C@@H]2CNC[C@@H]32)cn1 (relative stereo) [Example 178, Trans-8-(2-methoxypyrimidin-5-yl)-1,2,3,3a,4,5-hexahydrobenzo[e]pyrrolo[3,4-c]azepin-6(10bH)-one]",> 120,70,inactive,> 10,–,–,–,–
"O=C1NC[C@@H]2CNC[C@H]2c2ccc(-c3ccsc3)cc21 (relative stereo) [Example 184, Trans-8-(thiophen-3-yl)-1,2,3,3a,4,5-hexahydrobenzo[e]pyrrolo[3,4-c]azepin-6(10bH)-one]",–,–,inactive,–,0.3,> 120,> 10,–
"CN1C[C@H]2CNC(=O)c3cc(-c4cccc(C(C)(O)C(F)(F)F)c4)ccc3[C@@H]2C1 (relative stereo) [Example 185, Trans-2-methyl-8-(3-(1,1,1-trifluoro-2-hydroxypropan-2-yl)phenyl)-1,2,3,3a,4,5-hexahydrobenzo[e]pyrrolo[3,4-c]azepin-6(10bH)-one]",–,–,inactive,–,1,120,> 10,–
"CN1C[C@H]2CNC(=O)c3cc(-c4cccc(C(C)(C)O)c4)ccc3[C@@H]2C1 (relative stereo) [Example 186, Trans-8-(3-(2-hydroxypropan-2-yl)phenyl)-2-methyl-1,2,3,3a,4,5-hexahydrobenzo[e]pyrrolo[3,4-c]azepin-6(10bH)-one]",–,–,inactive,–,1,> 120,> 10,–
"CC(=O)c1cccc(-c2ccc3c(c2)C(=O)N(C)C[C@@H]2CNC[C@@H]32)c1 (relative stereo) [Example 187, Trans-8-(3-acetylphenyl)-5-methyl-1,2,3,3a,4,5-hexahydrobenzo[e]pyrrolo[3,4-c]azepin-6(10bH)-one]",–,–,inactive,–,3,> 120,> 10,–
"COc1ccc2c(c1)C(=O)N(C)C[C@@H]1CNC[C@@H]21 (relative stereo) [Example 188, Trans-8-methoxy-5-methyl-1,2,3,3a,4,5-hexahydrobenzo[e]pyrrolo[3,4-c]azepin-6(10bH)-one]",> 120,60,–,1,–,–,–,90
"CN1C[C@@H]2CNC[C@H]2c2ccc(-c3cccc(CCO)c3)cc2C1=O (relative stereo) [Example 189, Trans-8-(3-(2-hydroxyethyl)phenyl)-5-methyl-1,2,3,3a,4,5-hexahydrobenzo[e]pyrrolo[3,4-c]azepin-6(10bH)-one]",–,–,inactive,–,0.9,> 120,> 10,–
"COc1ccc2c(c1)C(=O)N(C)C[C@@H]1CN(C)C[C@@H]21 (relative stereo) [Example 190, Trans-8-methoxy-2,5-dimethyl-1,2,3,3a,4,5-hexahydrobenzo[e]pyrrolo[3,4-c]azepin-6(10bH)-one]",> 120,100,inactive,> 10,–,–,–,–
